Test results as given in patent US20010044445A1, “AZOLE INHIBITORS OF CYTOKINE PRODUCTION” (priority 1999, published 2001).
pIC50: −log10 of the molar value.

Tested on: Human peripheral blood mononuclear cells
Assay: Human Concanavalin-A Proliferation Assay (Con HU Assay)
Format: cell-based
Settings: concanavalin-A stimulated human PBMC, tritiated thymidine
Protocol: Human peripheral blood mononuclear cells were cultured in RPMI 1640 medium supplemented with 10 μg/ml gentamicin, 50 μM 2-mercaptoethanol, 1X MEM non-essential amino acids (Sigma Chemical Co., St. Louis, Mo.), 100 U/ml sodium penicillin G, 100 μg/ml streptomycin sulfate, 2 mM L-glutamine, 1 mM sodium pyruvate (Life Technologies, Grand Island, N.Y.) and 10% fetal bovine serum (Hyclone, Logan, Utah) at 37° C. with 5% CO2.
The procedure in Current Protocols in Immunology, Volume 1, Published by the Greene Publishing Associates and John Wiley & Sons, Inc, Edited by Richard Coico, 1994, hereby incorporated by reference, was followed. Briefly, 50 ml of blood from human volunteers was collected in heparinized syringes and mixed. Blood was diluted 1:1 in Dulbecco's phosphate buffered saline (D-PBS) (Life Technologies, Grand Island, N.Y.) and mixed. PBS-blood mixture was overlaid into 50 ml centrifuge tubes containing 15 ml Histopaque 1077 (Sigma Chemical Co., St. Louis, Mo.) and centrifuged at 500 X G for 30 minutes at room temperature. Cells at the interface from each Histopaque tube were removed and mixed with 5 ml of D-PBS. Each cell suspension was diluted to 50 ml with D-PBS, mixed and centrifuged at 400 X G for 15 minutes at room temperature. After most of the supernatant was removed, cells were resuspended to 40 ml with D-PBS per tube (2 tubes per donor). Cells were centrifuged at 400 X G for 10 minutes at room temperature. Pellets were resuspended in 10 ml of supplemented RPMI 1640 and cell number determined with a Coulter counter. Cells were diluted to a concentration of 0.5×10^6 cells per mL.
The procedure in Current Protocols in Immunology, Volume 1, Published by the Greene Publishing Associates and John Wiley & Sons, Inc, Edited by Richard Coico, 1994, hereby incorporated by reference, was followed. Briefly, test compounds were added to appropriate wells on 96-well tissue culture plates (Corning Glass Works, Corning, N.Y.) in 20 µl of supplemented RPMI 1640. Human peripheral blood mononuclear cells were added to each well in 100 μl volumes (final cell concentration equal to 50,000 cells per well). After 15 minutes, 100 μl of 5 μg/ml concanavalin-A (Sigma Chemical Co., St. Louis, Mo.) in supplemented RPMI 1640 was added to a final concentration of 2.5 μg/ml. Plates were incubated for 3 days at 37° C. with 5% CO2. On day 3, plates were pulsed with 0.5 μCi/well tritiated thymidine (New England Nuclear, Boston, Mass.). After 6 hours, plates were harvested on a Tomatec 96-well havester (Orange, Conn.). Glass filter mats were counted on a Matrix 9600 direct beta counter (Packard, Meriden, Conn.).

`Nc1cc(NC(=O)c2ccccc2F)ccc1-n1nc(C(F)(F)F)cc1C(F)(F)F` [Example 298, N-{3-amino-4-[3,5-bis(trifluoromethyl)-1H-pyrazol-1-yl]phenyl}-2-fluorobenzamide] was tested, and the pIC50 (Homo sapiens, PBMC) was 6.48.
`N#Cc1cc(NC(=O)c2ccccc2F)ccc1-n1nc(C(F)(F)F)cc1C(F)(F)F` [Example 299, N-(4-(3,5-bis(trifluoromethyl)-1H-pyrazol-1-yl)-3-cyanophenyl)-2-fluorobenzamide] was tested, and the pIC50 (Homo sapiens, PBMC) was 6.57.
Compound `N#Cc1cc(C(F)(F)F)nn1-c1ccc(NC(=O)c2ccccc2F)cc1` [Example 300, N-{4-[5-cyano-3-(trifluoromethyl)-1H-pyrazol-1-yl]phenyl}-2-fluorobenzamide] has a pIC50 (Homo sapiens, PBMC) of 7.10.
`O=C(Nc1ccc(-n2nc(C(F)(F)F)cc2-c2ccco2)cc1)c1ccccc1F` [Example 301, 2-fluoro-N-(4-(5-(2-furyl)-3-(trifluoromethyl)-1H-pyrazol-1-yl)phenyl)benzamide] was tested, and the pIC50 (Homo sapiens, PBMC) was 6.63.
`N#Cc1cc(C(F)(F)F)nn1-c1ccc(NC(=O)c2cc(F)cc(F)c2F)cc1` [Example 307, N-(4-(5-cyano-3-(trifluoromethyl)-1H-pyrazol-1-yl)phenyl)-2,3,5-trifluorobenzamide] was tested, and the pIC50 (Homo sapiens, PBMC) was 7.10.
In the case of `O=C(Nc1ccc(-n2nc(C(F)(F)F)cc2-c2cccs2)cc1)c1ccccc1F` [Example 308, 2-fluoro-N-(4-(5-(2-thienyl)-3-(trifluoromethyl)-1H-pyrazol-1-yl)phenyl)benzamide], the pIC50 (Homo sapiens, PBMC) was 6.51.
For `CSc1cc(C(F)(F)F)nn1-c1ccc(NC(=O)c2ccccc2F)cc1` [Example 309, 2-fluoro-N-(4-(5-(methylsulfanyl)-3-(trifluoromethyl)-1H-pyrazol-1-yl)phenyl)benzamide], the pIC50 (Homo sapiens, PBMC) was 7.49.
With `COc1cc(C(F)(F)F)nn1-c1ccc(NC(=O)c2ccncc2)cc1` [Example 312, N-(4-(5-methoxy-3-(trifluoromethyl)-1H-pyrazol-1-yl)phenyl)isonicotinamide] the pIC50 (Homo sapiens, PBMC) was 6.53.
In the case of `O=C(Nc1ccc(-n2nc(-c3ccncc3)cc2C(F)(F)F)cc1)c1ccncc1F` [Example 318, 3-fluoro-N-(4-(3-(4-pyridinyl)-5-(trifluoromethyl)-1H-pyrazol-1-yl)phenyl)isonicotinamide], the pIC50 (Homo sapiens, PBMC) was 6.59.
Compound `CCOc1cc(C(F)(F)F)nn1-c1ccc(NC(=O)c2cccnc2F)cc1` [Example 319, N-(4-(5-ethoxy-3-(trifluoromethyl)-1H-pyrazol-1-yl)phenyl)-2-fluoronicotinamide] has a pIC50 (Homo sapiens, PBMC) of 6.66.
`O=C(Nc1ccc(-n2nc(C(F)(F)F)cc2OC(F)F)cc1)c1ccncc1` [Example 322, N-(4-(5-(difluoromethoxy)-3-(trifluoromethyl)-1H-pyrazol-1-yl)phenyl)isonicotinamide] showed a pIC50 (Homo sapiens, PBMC) of 6.62.
For `O=C(Nc1ccc(-n2nc(C(F)(F)F)cc2Cl)cc1)c1cccnc1F` [Example 325, N-(4-(5-chloro-3-(trifluoromethyl)-1H-pyrazol-1-yl)phenyl)-2-fluoronicotinamide], the pIC50 (Homo sapiens, PBMC) was 6.76.
For `O=C(Nc1ccc(-n2nc(C(F)(F)F)cc2[N+](=O)[O-])cc1)c1ccccc1F` [Example 326, 2-fluoro-N-(4-(5-nitro-3-(trifluoromethyl)-1H-pyrazol-1-yl)phenyl)benzamide], the pIC50 (Homo sapiens, PBMC) was 6.78.
Work on `O=C(Nc1ccc(-n2nc(-c3cccnc3)cc2C(F)F)cc1)c1ccncc1F` [Example 329, N-(4-(5-(difluoromethyl)-3-(3-pyridinyl)-1H-pyrazol-1-yl)phenyl)-3-fluoroisonicotinamide] yielded a pIC50 (Homo sapiens, PBMC) of 6.52.
For `N#Cc1cc(-c2ccccn2)nn1-c1ccc(NC(=O)c2ccncc2F)cc1` [Example 330, N-(4-(5-cyano-3-(2-pyridinyl)-1H-pyrazol-1-yl)phenyl)-3-fluoroisonicotinamide], the pIC50 (Homo sapiens, PBMC) was 6.77.
Work on `Cc1nnsc1C(=O)Nc1ccc(-n2nc(-c3cccnc3)cc2C#N)cc1` [Example 331, N-(4-(5-cyano-3-(3-pyridinyl)-1H-pyrazol-1-yl)phenyl)-4-methyl-1,2,3-thiadiazole-5-carboxamide] yielded a pIC50 (Homo sapiens, PBMC) of 6.66.
For `O=C(Nc1ccc(-n2nc(C(F)(F)F)cc2Br)cc1)c1ccncc1F` [Example 332, N-(4-(5-bromo-3-(trifluoromethyl)-1H-pyrazol-1-yl)phenyl)-3-fluoroisonicotinamide], the pIC50 (Homo sapiens, PBMC) was 7.36.
With `O=C(Nc1ccc(-n2nc(C(F)(F)F)cc2[N+](=O)[O-])cc1)c1ccncc1F` [Example 333, 3-fluoro-N-(4-(5-nitro-3-(trifluoromethyl)-1H-pyrazol-1-yl)phenyl)isonicotinamide] the pIC50 (Homo sapiens, PBMC) was 6.39.
In the case of `O=C(Nc1ccc(-n2nc(-c3cccnc3)cc2[N+](=O)[O-])cc1)c1ccncc1F` [Example 334, 3-fluoro-N-{4-[5-nitro-3-(3-pyridinyl)-1H-pyrazol-1-yl]phenyl}isonicotinamide], the pIC50 (Homo sapiens, PBMC) was 6.53.
In the case of `Cc1nnsc1C(=O)Nc1ccc(-n2nc(-c3cccnc3)cc2[N+](=O)[O-])cc1` [Example 337, N-[4-[3-(3-pyridyl)-5-nitro-1H-pyrazol-1-yl]phenyl]-4-methylthiadiazol-5-yl-carboxamide], the pIC50 was 6.66.
Compound `N#Cc1cc(-c2nccs2)nn1-c1ccc(NC(=O)c2ccncc2F)cc1` [Example 338, N-(4-(5-cyano-3-(1,3-thiazol-2-yl)-1H-pyrazol-1-yl)phenyl)-3-fluoroisonicotinamide] has a pIC50 (Homo sapiens, PBMC) of 6.79.
`O=C(Nc1ccc(-n2nc(-c3cncc(Br)c3)cc2OC(F)F)cc1)c1ccncc1F` [Example 339, N-(4-(3-(5-bromo-3-pyridinyl)-5-(difluoromethoxy)-1H-pyrazol-1-yl)phenyl)-3-fluoroisonicotinamide] gave a pIC50 (Homo sapiens, PBMC) of 6.43.
Work on `N#Cc1cc(-c2nccs2)nn1-c1ccc(NC(=O)c2ccncc2F)cc1` [Example 341, N-(4-(5-cyano-3-(1,3-thiazol-2-yl)-1H-pyrazol-1-yl)phenyl)-3-fluoroisonicotinamide] yielded a pIC50 of 6.72.
Compound `Cc1nnsc1C(=O)Nc1ccc(-n2nc(-c3nccs3)cc2C(F)(F)F)cc1` [Example 342, 4-methyl-N-(4-(3-(1,3-thiazol-2-yl)-5-(trifluoromethyl)-1H-pyrazol-1-yl)phenyl)-1,2,3-thiadiazole-5-carboxamide] has a pIC50 (Homo sapiens, PBMC) of 6.62.
Compound `Cc1nc(C)c(-c2cc(C(F)(F)F)n(-c3ccc(NC(=O)c4ccncc4F)cc3)n2)s1` [Example 343, N-(4-(3-(2,4-dimethyl-1,3-thiazol-5-yl)-5-(trifluoromethyl)-1H-pyrazol-1-yl)phenyl)-3-fluoroisonicotinamide] has a pIC50 (Homo sapiens, PBMC) of 6.60.
Compound `Cn1ccc(-c2cc(C(F)(F)F)nn2-c2ccc(NC(=O)c3ccncc3F)cc2)c1` [Example 344, 3-fluoro-N-(4-(5-(1-methyl-1H-pyrrol-3-yl)-3-(trifluoromethyl)-1H-pyrazol-1-yl)phenyl)isonicotinamide] has a pIC50 (Homo sapiens, PBMC) of 6.60.
`O=C(Nc1ccc(-n2nc(-c3nccs3)cc2Cl)cc1)c1ccncc1F` [Example 347, N-(4-(5-chloro-3-(1,3-thiazol-2-yl)-1H-pyrazol-1-yl)phenyl)-3-fluoroisonicotinamide] was tested, and the pIC50 (Homo sapiens, PBMC) was 6.54.
With `Cc1nnsc1C(=O)Nc1ccc(-n2nc(-c3ccoc3)cc2Cl)cc1` [Example 355, N-(4-(5-chloro-3-(3-furyl)-1H-pyrazol-1-yl)phenyl)-4-methyl-1,2,3-thiadiazole-5-carboxamide] the pIC50 (Homo sapiens, PBMC) was 6.55.
`N#Cc1cc(C2CCCO2)nn1-c1ccc(NC(=O)c2ccncc2F)cc1` (stereo not drawn) [Example 357, N-(4-(5-cyano-3-tetrahydro-2-furanyl-1H-pyrazol-1-yl)phenyl)-3-fluoroisonicotinamide] was tested, and the pIC50 (Homo sapiens, PBMC) was 5.73.
Compound `Cn1ccc(-c2cc(OC(F)F)n(-c3ccc(NC(=O)c4ccncc4F)cc3)n2)c1` [Example 358, N-(4-(5-(difluoromethoxy)-3-(1-methyl-1H-pyrrol-3-yl)-1H-pyrazol-1-yl)phenyl)-3-fluoroisonicotinamide] has a pIC50 (Homo sapiens, PBMC) of 6.69.
For `O=C(Nc1ccc(-n2nc(-c3ccoc3)cc2OC(F)F)cc1)c1ccncc1F` [Example 359, N-(4-(5-(difluoromethoxy)-3-(3-furyl)-1H-pyrazol-1-yl)phenyl)-3-fluoroisonicotinamide], the pIC50 (Homo sapiens, PBMC) was 6.58.
For `Cn1cccc1-c1cc(OC(F)F)n(-c2ccc(NC(=O)c3ccncc3F)cc2)n1` [Example 360, N-(4-(5-(difluoromethoxy)-3-(1-methyl-1H-pyrrol-2-yl)-1H-pyrazol-1-yl)phenyl)-3-fluoroisonicotinamide], the pIC50 (Homo sapiens, PBMC) was 6.48.
With “N-(4-(5-acetyl-3-(trifluoromethyl)-1H-pyrazol-1-yl)phenyl)-2-fluorobenzamide [Example 305]” the pIC50 was 6.77.
